Assays:
[1] = biological target: Cyclin-dependent kinase 4/cyclin D1 (Homo sapiens, UniProt P11802); assay: Inhibition of recombinant human full-length GST-tagged CDK4/cyclinD1 expressed in baculovirus expression system using PEP as substrate incubated for 3 mins in presence of ATP by TR-FRET assay
[2] = biological target: CDK9/cyclin T1 (Homo sapiens, UniProt P50750); assay: Inhibition of human full-length N-terminal GST-fused CDK9 (1 to 372 residues)/His-tagged Cyclin-T1 (1 to 726 residues) expressed in baculovirus expression system using PEP as substrate incubated for 17 mins in presence of ATP by TR-FRET assay
[3] = Half life in rat at 100 mg/kg, po measured up to 48 hrs by LC-MS/MS analysis; type: ADME, organism-based; conditions: in vivo
[4] = Oral bioavailability in rat at 100 mg/kg administered as single dose measured up to 48 hrs by LC-MS/MS analysis; type: ADME, organism-based; conditions: in vivo
[5] = biological target: CDK6/cyclin D3 (Homo sapiens, UniProt Q00534); assay: Inhibition of human full-length N-terminal GST tagged CDK6 (1 to 326 residues)/cyclinD3 (1 to 292 residues) expressed in baculovirus expression system using PEP as substrate incubated for 3 mins in presence of ATP by TR-FRET assay
CDK6/cyclin D3, sequence (P30281 whole entry, the tested form may be a part): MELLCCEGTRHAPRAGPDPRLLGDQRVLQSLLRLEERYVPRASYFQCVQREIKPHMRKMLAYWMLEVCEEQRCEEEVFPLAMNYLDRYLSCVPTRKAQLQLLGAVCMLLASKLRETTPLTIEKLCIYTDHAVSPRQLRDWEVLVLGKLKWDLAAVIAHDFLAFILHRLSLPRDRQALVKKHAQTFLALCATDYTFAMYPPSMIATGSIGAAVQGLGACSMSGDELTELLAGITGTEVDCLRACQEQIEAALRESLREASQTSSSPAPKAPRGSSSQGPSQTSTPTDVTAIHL
CDK6/cyclin D3, sequence (Q00534 whole entry, the tested form may be a part): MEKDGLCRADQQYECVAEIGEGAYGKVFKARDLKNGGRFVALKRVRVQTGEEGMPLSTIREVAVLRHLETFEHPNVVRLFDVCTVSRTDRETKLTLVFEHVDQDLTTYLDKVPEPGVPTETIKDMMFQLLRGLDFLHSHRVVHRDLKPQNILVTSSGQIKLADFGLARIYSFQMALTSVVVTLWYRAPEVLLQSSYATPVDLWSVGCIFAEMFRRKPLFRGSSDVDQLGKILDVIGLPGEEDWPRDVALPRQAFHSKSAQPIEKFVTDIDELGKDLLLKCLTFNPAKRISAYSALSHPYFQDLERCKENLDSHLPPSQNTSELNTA

Cyclin-dependent kinase 4/cyclin D1, sequence (P11802 whole entry, the tested form may be a part): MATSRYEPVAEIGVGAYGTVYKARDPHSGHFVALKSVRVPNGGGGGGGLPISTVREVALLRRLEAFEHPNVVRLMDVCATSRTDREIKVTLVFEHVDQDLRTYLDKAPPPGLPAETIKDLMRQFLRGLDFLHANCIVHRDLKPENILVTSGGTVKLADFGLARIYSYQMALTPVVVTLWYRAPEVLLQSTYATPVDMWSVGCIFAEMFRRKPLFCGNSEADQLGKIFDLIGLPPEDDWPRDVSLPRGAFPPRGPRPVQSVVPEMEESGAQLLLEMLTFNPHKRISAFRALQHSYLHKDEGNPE
Cyclin-dependent kinase 4/cyclin D1, sequence (P24385 whole entry, further chain, the tested form may be a part): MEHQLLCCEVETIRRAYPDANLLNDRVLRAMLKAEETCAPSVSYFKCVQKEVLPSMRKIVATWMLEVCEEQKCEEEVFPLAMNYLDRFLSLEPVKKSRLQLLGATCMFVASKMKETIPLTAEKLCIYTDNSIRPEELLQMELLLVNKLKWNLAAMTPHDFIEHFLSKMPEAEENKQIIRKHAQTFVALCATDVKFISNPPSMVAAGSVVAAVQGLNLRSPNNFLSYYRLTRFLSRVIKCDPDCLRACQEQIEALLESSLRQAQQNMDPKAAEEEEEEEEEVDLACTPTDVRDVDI
CDK9/cyclin T1, sequence (O60563 whole entry, the tested form may be a part): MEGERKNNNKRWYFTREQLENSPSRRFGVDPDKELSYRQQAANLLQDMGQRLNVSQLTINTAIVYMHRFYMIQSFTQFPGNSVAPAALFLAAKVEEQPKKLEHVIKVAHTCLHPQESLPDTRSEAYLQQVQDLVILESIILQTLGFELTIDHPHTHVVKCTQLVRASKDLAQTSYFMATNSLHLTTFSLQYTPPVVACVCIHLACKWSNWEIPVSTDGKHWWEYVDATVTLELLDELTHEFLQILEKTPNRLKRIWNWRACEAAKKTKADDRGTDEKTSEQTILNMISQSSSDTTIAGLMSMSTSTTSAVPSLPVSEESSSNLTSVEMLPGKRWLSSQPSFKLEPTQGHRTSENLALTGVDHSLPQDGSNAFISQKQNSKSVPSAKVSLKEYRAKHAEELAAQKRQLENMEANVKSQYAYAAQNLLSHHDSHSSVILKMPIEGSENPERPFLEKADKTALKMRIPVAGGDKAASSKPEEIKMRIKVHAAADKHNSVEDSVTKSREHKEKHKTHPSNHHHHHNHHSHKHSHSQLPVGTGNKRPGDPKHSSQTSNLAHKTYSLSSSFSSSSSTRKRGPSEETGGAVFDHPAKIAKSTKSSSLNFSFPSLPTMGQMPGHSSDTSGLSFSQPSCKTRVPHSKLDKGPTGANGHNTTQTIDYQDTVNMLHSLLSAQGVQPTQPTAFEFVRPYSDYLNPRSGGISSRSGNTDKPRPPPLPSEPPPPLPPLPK
CDK9/cyclin T1, sequence (P50750 whole entry, the tested form may be a part): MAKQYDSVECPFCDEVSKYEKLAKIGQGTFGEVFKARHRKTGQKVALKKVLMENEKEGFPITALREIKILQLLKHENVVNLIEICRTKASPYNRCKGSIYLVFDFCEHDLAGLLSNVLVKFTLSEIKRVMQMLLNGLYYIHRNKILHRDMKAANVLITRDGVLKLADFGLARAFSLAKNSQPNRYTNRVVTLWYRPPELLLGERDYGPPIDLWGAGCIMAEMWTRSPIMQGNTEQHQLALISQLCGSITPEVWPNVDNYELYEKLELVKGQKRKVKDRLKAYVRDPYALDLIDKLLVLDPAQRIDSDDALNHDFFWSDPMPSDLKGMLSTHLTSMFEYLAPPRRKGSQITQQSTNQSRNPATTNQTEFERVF

SMILES	IC50 [1] [nM]	IC50 [2] [nM]	half-life [3] [h]	bioavailability [4] [%]	IC50 [5] [nM]
CC(=O)c1c(C)c2cnc(Nc3ccc(N4CC(C)NC(C)C4)cc3)nc2n(C2CCCC2)c1=O (stereo not given)	< 3.2	6.03	–	–	–
CN1CCN(c2ccc(Nc3ncc4cc(C(=O)N(C)C)n(C56CC(C5)C6)c4n3)cc2)CC1	3.81	7.08	6	33.3	–
CN(C)C(=O)c1cc2cnc(Nc3ccc(N4CCN(CCO)CC4)c(F)c3)nc2n1C12CC(C1)C2	< 3.2	< 3.2	–	–	–
CC(=O)c1c(C)c2cnc(Nc3ccc(N(C)CCN(C)C)cc3)nc2n(C23CC(C2)C3)c1=O	30	149	–	–	–
CN1CCN(c2ccc(Nc3ncc4c(n3)N(C3CCCC3)C3(CC(=O)NC3=O)C4)cc2F)CC1 (stereo not given)	14.4	23.4	–	–	70.6
CC(=O)c1c(C)c2cnc(Nc3ccc(N(C)CCN(C)C)cc3)nc2n(C2CCCC2)c1=O	< 3.2	7.13	–	–	–
CC(C)N1CCN(c2ccc(Nc3ncc4c(n3)N(C3CCCC3)C3(CC(=O)NC3=O)C4)cc2)CC1 (stereo not given)	28.4	70.7	–	–	–

The remaining compounds from weak to strong by IC50 [1], led by results:

IC50 [1] [nM]	IC50 [2] [nM]	half-life [3] [h]	bioavailability [4] [%]	IC50 [5] [nM]	SMILES
51.7	46.6	–	–	258	CN1CCN(c2ccc(Nc3ncc4c(n3)N(C3CCCC3)C3(CCNC3=O)C4)cc2F)CC1 (stereo not given)
25.7	80.5	–	–	–	CN1CCN(c2ccc(Nc3ncc4c(n3)N(C3CCCC3)C3(CC(=O)NC3=O)C4)cc2)CC1 (stereo not given)
4.13	6.18	–	–	10.1	CN(C)C(=O)c1cc2cnc(Nc3ccc(N4CCNCC4)c(F)c3)nc2n1C12CC(C1)C2
3.78	7.55	–	–	–	CN1CCN(C2CCN(c3ccc(Nc4ncc5cc(C(=O)N(C)C)n(C67CC(C6)C7)c5n4)cc3F)CC2)CC1
3	31.8	–	–	10.1	CC(=O)c1c(C)c2cnc(Nc3ccc(OCCN(C)C)c(F)c3)nc2n(C2CCCC2)c1=O

Reference: ChEMBL document CHEMBL4673382, “Cyclin-Dependent Kinase Inhibitors in Cancer Therapeutics” (ACS Med Chem Lett, 2021)
